Entries after “also recorded” stand apart in the source; their conditions may differ.
What was measured:
[1] = tested on: differentiated ND7/23 cells; assay: Intracellular calcium signals in differentiated ND7/23 cells stimulated with KCl or ionomycin; assay type: cell-based, mouse neuroblastoma and rat dorsal root ganglion cells; conditions: 50 μM pre-treatment
Experimental: FIGS. 14A-C. Effect of RHB121 on the intracellular calcium signals generated in differentiated ND7/23 cells following stimulation with 30 mM extracellular K+ ions or the calcium ionophore ionomycin (10 μM). FIG. 14A. […] FIG. 14B. […] FIG. 14C. Relative changes in the intracellular calcium signal generated in differentiated ND7/23 cells by 30 mM KCl or Ionomycin (10 μM) in control or RHB121-treated cells. Control groups were arbitrarily assigned a 100% intracellular calcium signal.
To assess the effect of RHB121 on intracellular calcium signals, differentiated ND7/23 cells with a high potassium concentration (30 mM KCl) were simulated. The effect of the calcium ionophore Ionomycin, which also can increase intracellular calcium by a different mechanism, independently of T-type Ca^2+ channel activation, was also tested. Stimulation of differentiated ND7/23 with 30 mM KCl external solution caused a small increase in the intracellular calcium signal (FIG. 14A).

human Cav3.2 = biological target: T1, human Cav3.2 (Homo sapiens, UniProt O95180); assay: Whole-cell patch clamp of T-type Ca2+ currents in Cav3.2-stable transfected HEK 293 cells; assay type: cell-based; conditions: for Effect on whole cell capacitance / Effect on T-type Ca2+ current density: 50 μM; for Effect on T-type Ca2+ current density: vs non-treated cells
T1 construct: host or cells: HEK 293
T1 sequence (O95180 whole entry): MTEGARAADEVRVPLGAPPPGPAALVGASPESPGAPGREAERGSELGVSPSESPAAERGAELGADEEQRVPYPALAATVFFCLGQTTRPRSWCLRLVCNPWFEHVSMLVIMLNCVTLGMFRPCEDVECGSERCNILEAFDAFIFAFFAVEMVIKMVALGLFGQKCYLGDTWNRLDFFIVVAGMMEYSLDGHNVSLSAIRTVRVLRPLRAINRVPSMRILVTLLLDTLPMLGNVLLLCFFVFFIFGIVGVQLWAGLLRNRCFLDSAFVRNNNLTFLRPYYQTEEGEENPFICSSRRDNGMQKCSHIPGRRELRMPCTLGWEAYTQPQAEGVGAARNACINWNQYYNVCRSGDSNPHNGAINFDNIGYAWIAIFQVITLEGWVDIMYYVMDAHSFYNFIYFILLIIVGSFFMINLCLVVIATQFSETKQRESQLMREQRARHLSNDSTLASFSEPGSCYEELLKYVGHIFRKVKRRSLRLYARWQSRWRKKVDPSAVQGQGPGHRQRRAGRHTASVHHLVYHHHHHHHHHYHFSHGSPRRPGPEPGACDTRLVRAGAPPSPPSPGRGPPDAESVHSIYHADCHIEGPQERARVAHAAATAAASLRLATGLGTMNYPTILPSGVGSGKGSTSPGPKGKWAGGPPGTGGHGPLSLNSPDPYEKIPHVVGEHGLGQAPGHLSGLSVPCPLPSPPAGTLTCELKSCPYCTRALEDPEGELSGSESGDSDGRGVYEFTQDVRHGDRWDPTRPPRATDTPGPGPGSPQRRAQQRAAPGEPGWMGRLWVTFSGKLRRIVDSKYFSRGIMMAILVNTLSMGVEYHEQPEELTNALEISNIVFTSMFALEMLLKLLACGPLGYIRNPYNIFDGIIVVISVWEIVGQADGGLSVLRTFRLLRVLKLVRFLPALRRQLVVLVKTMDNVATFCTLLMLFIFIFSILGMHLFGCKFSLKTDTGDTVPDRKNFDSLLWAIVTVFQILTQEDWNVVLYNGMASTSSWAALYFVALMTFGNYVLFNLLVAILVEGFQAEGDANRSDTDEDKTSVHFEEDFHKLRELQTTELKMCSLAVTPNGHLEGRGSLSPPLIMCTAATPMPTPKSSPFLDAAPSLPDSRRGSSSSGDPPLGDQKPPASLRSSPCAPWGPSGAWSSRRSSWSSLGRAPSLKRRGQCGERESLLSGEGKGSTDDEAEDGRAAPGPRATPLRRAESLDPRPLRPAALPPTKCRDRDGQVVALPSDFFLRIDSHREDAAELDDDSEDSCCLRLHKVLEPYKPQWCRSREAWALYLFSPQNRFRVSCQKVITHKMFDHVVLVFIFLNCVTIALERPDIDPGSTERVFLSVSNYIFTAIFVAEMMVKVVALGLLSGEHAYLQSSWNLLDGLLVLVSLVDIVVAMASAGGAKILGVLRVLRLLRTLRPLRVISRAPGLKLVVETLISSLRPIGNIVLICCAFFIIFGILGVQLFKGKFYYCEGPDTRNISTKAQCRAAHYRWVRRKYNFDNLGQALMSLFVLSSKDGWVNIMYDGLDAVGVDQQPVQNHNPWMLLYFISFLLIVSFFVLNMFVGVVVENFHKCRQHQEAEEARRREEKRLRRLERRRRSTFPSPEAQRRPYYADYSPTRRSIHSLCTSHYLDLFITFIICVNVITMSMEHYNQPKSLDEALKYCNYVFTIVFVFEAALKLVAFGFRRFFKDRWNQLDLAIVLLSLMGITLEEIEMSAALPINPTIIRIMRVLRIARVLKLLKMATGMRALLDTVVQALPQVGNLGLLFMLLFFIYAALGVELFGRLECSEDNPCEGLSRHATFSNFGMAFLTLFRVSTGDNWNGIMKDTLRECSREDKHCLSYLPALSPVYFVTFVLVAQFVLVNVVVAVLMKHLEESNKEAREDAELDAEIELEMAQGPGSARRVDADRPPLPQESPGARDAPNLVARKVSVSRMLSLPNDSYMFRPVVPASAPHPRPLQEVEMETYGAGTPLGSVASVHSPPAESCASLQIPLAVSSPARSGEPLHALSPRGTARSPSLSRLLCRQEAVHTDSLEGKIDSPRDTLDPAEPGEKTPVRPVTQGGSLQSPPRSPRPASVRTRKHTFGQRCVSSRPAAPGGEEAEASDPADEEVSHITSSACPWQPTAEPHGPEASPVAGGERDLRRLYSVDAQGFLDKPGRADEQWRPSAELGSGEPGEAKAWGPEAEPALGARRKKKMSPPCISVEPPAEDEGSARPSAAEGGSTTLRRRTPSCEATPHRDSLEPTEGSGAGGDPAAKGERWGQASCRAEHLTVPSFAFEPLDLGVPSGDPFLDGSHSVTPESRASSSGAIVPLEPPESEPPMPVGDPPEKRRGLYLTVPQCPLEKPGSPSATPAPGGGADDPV
Experimental: Certain exemplary embodiments have undergone target identification studies to discover a better officious T-type calcium blocker. The fourteen trifluoromethylated N-benzamide enaminone compounds were synthesized, purified, and structure confirmed using gas chromatography/mass spectroscopy, nuclear magnetic resonance, and elemental analysis. Preliminary in vitro whole cell patch clamp experiments were performed to assess the inhibitory effects of several target analogs on voltage-activated calcium currents in human embryonic kidney (HEK-293) cells. Cav3.2 transfected HEK 293 cells were treated with 50 μM of test compounds and compared to the control group (none pretreated HEK 293 cells).
(§1) ND7/23 cells are derived from the fusion of mouse neuroblastoma and rat dorsal root ganglion cells, which generates a more homogeneous sensory neuron-like cell population. ND7/23 cells were purchased from Sigma-Aldrich (RRID:CVCL_4259). Culture and differentiation of ND7/23 cells was performed as previously described. Briefly, ND7/23 cells were cultured in DMEM/F12 culture media (Millipore, Cat. #DF-041-B), supplemented with 0.5% fetal bovine serum (Invitrogen, Cat. #10437010), db-cAMP (1 mM, Sigma-Aldrich, Cat. #D0627), and nerve growth factor (NGF, 50 ng/mL, Sigma-Aldrich, Ca. #N2513). To remove any proliferating cells, cultures were treated with uridine (20 μM, Sigma-Aldrich, Cat. #U3003) and fluorodeoxyuridine (20 μM, Sigma-Aldrich, Cat. #F0503). Cells were maintained in differentiation media without uridine and fluorodeoxyuridin after induction of differentiation. ND7/23 cells were maintained in differentiation media for ≤6 days. HEK 293 cells that were stabled transfected with the human Cav3.2 and Cav3.3 channel subunits were a gift of Dr. E. Perez-Reyes (University of Virginia). Cav3.2 (or Cav3.3)-stabled transfected HEK 293 cells were culture in DMEM/F12 culture media, supplemented with 5% fetal bovine serum, 50 U/mL penicillin and 50 μg/mL streptomycin. ND7/23 and HEK 293 cells were grown in an incubator at 37° C. in the presence of 5% CO2/95% air humidified atmosphere. Cells passaged less than 20 times were used in this work. Cells were grown in poly-D-lysine-coated glass coverslips for electrophysiological recordings.
Whole cell recordings were performed as previously described. A Nikon Eclipse Ti inverted microscope equipped with Hoffman optics and epifluorescence filters was used to visualize individual cells. Recordings were performed at room temperature (22-24° C.) using glass electrodes made from thin wall borosilicate glass (3-5 MΩ). For electrophysiological recordings of inward Ca^2+ currents, outward K^+ currents were eliminated by equimolar substitution of K^+ with Cs^+ in the pipette solution, whereas inward Na^+ currents were eliminated by the use of TEA ions in the external solution, which are unable to go through voltage-gated Na^+ channels. The pipette solution consisted of (in mM) CsCl (120), MgCl2(2), HEPES (10), EGTA (10), ATP (1), and GTP (0.1), pH 7.4 with CsOH. The composition of the normal external saline used for measurements of Ca^2+ currents was (in mM): tetraethylammonium chloride (TEACl, 145), CaCl2 (10), MgCl2(1), HEPES (10), and glucose (5), pH 7.4 adjusted with CsOH. Ca^2+ currents were generated by applying a 200-500 ms-depolarizing step to various potentials from a holding potential of −100 mV. The external solution used to measure Na^+ currents contained (in mM) NaCl (145), KCl (5.3), CaCl2 (0.5), MgCl2 (5.7), HEPES (13), and glucose (5), pH 7.4 adjusted with KOH. The composition of the CsCl-pipette solution used to record Na^+ currents was the same describe above. Na^+ currents were generated by applying a 20 ms-depolarizing step to various potentials from a holding potential of −100 mV. To assess drug-evoked changes on specific ionic conductances, current amplitudes were expressed as current densities as previously reported. […]

[2] = tested on: voltage-activated Na^+ channels; assay: Whole-cell recording of Na+ currents in differentiated ND7/23 cells; assay type: cell-based, mouse neuroblastoma and rat dorsal root ganglion cells; conditions: 50 μM
Experimental: as §1
Whole cell recordings were performed as previously described. A Nikon Eclipse Ti inverted microscope equipped with Hoffman optics and epifluorescence filters was used to visualize individual cells. Recordings were performed at room temperature (22-24° C.) using glass electrodes made from thin wall borosilicate glass (3-5 MΩ). For electrophysiological recordings of inward Ca^2+ currents, outward K^+ currents were eliminated by equimolar substitution of K^+ with Cs^+ in the pipette solution, whereas inward Na^+ currents were eliminated by the use of TEA ions in the external solution, which are unable to go through voltage-gated Na^+ channels. […] To assess drug-evoked changes on specific ionic conductances, current amplitudes were expressed as current densities as previously reported. […] Cell capacitance was determined by integrating the transient current evoked by a 10-mV voltage step from a holding potential of −60 mV.
A MULTICLAMP 700A amplifier and PCLAMP software (Axon Instruments) was used to deliver voltage commands and to perform data acquisition and analysis. […] Only cells with stable seals and series resistance (≤10 MΩ) were analyzed. […]

[3] = tested on: LNCaP prostate cancer cells; assay: XTT cell viability assay; assay type: cell-based; conditions: 50 μM, 48 hours
Excerpt: FIG. 15. Effect of RHB121, RHB62, and RHB95 on the cell viability of LNCaP prostate cancer cells. […] Cell viability was expressed as a percent of control LNCaP cells that received no treatment. Control groups were arbitrarily assigned a 100% viability value.
To assess the effect of RHB62, RHB95, and RHB121 on cell viability, the XTT assay was used.

Structure (SMILES)	Effect on intracellular calcium signal evoked with 30 mM KCl [1]	Effect on intracellular calcium signal evoked with Ionomycin (10 μM) [1]	Effect on activation time constant (τ) (human Cav3.2; 10 μM)	Shift of the steady-state inactivation curve (human Cav3.2; 10 μM)	Effect on whole cell capacitance (human Cav3.2; HEK 293-Cav3.2 cells)	Effect on T-type Ca2+ current density (human Cav3.2; HEK 293-Cav3.2 cells)	Effect on whole cell capacitance (human Cav3.2; HEK 293-Cav3.2 cells, listed as RHB 121)	inhibition at 50 µM (human Cav3.2; HEK293, 50 μM, Cav3.2 transfected HEK 293 cells, read-out: Inhibition of calcium currents on T-type calcium channels) [%]	Concentration dependence of the inhibition of T-type Ca2+ currents (human Cav3.2; HEK 293-Cav3.2 cells)	Effect on Na+ current density [2]	Effect on cell viability (XTT assay) [3]	Effect on T-type Ca2+ current density (human Cav3.2; HEK 293-Cav3.2 cells, listed as RHB-95)
O=C1C=C(NC(=O)c2cccc(OC(F)(F)F)c2)CC(C(F)(F)F)C1 (stereo not drawn) [RHB121, N-(3-oxo-5-(trifluoromethyl)cyclohex-1-en-1-yl)-3-(trifluoromethoxy)benzamide]	complete inhibition; also recorded: significant reduction	still evoked a significant response; also recorded: significant reduction	does not alter; also recorded: no effect	leftward shift	no effect on cell capacitance	significant reduction	no significant changes	~100	concentration-dependent	does not affect; also recorded: no effect on the Na^+ current densities	do not affect the cell viability; also recorded: no effect on the cell viability	
Cc1cc(C)cc(C(=O)NC2=CC(=O)CC(C(F)(F)F)C2)c1 (stereo not drawn) [RHB62]					no significant changes; also recorded: no effect on cell capacitance	significant reduction; also recorded: reduction in the Ca^+2 current, with lower potency than RHB-77					do not affect the cell viability; also recorded: no effect on the cell viability	
O=C1C=C(NC(=O)c2cccc(C(F)(F)F)c2)CC(C(F)(F)F)C1 (stereo not drawn) [RHB95]					no significant changes; also recorded: no effect on cell capacitance	significant reduction					do not affect the cell viability; also recorded: no effect on the cell viability	No inhibitory effect

Source: US20240382438A1, “Calcium Channel Blockers and Methods Thereof” (University of Maryland, Eastern Shore, priority 2023, published 2024)
